Results published in ChEMBL document CHEMBL3885881, “DrugMatrix”.

Species: Rattus norvegicus
Assay: DrugMatrix - Regimen: Daily Repeat
Assay type: toxicity, organism-based, Sprague-Dawley
Design: regimen Daily Repeat, gender Male, age 6-8 weeks
Details: in vivo; for ABSOLUTE BASOPHIL / ABSOLUTE EOSINOPHIL / ABSOLUTE LYMPHOCYTE / ABSOLUTE MONOCYTE / ABSOLUTE SEGMENTED NEUTROPHIL / BASOPHIL / EOSINOPHIL / ERYTHROCYTE COUNT / HEMATOCRIT / HEMOGLOBIN / LEUKOCYTE COUNT / LYMPHOCYTE / MEAN CORPUSCULAR HEMOGLOBIN / MEAN CORPUSCULAR HEMOGLOBIN CONCENTRATION / MEAN CORPUSCULAR VOLUME / MONOCYTE / NEUTROPHIL / NUCLEATED RED BLOOD CELLS / PLATELET COUNT: tissue Blood; for ALANINE AMINOTRANSFERASE / ALBUMIN / ALKALINE PHOSPHATASE / ASPARTATE AMINOTRANSFERASE / BLOOD UREA NITROGEN / CARBON DIOXIDE / CHLORIDE / CHOLESTEROL / CREATINE PHOSPHOKINASE / CREATININE / GLUCOSE / LACTATE DEHYDROGENASE / LIPASE / PHOSPHORUS / POTASSIUM / SODIUM / TOTAL BILIRUBIN / TOTAL PROTEIN / URIC ACID: tissue Plasma
[1] = iv, 0.02 mg/kg, 72 h, dose level Low, time 3 day, vehicle 100 % SALINE
[2] = iv, 0.02 mg/kg, 120 h, dose level Low, time 5 day, vehicle 100 % SALINE
[3] = iv, 43 mg/kg, 72 h, dose level High, time 3 day, vehicle 100 % SALINE
[4] = iv, 43 mg/kg, 120 h, dose level High, time 5 day, vehicle 100 % SALINE
[5] = po, 0 mg/kg, 72 h, route oral GAVAGE, dose level Control, time 3 day, […]

## CC(CCc1ccc(O)cc1)NCCc1ccc(O)c(O)c1 (configuration not stated) [DOBUTAMINE]
[1]
  ABSOLUTE BASOPHIL: 0 CELLS/uL
  ABSOLUTE EOSINOPHIL: 0 CELLS/uL
  ABSOLUTE LYMPHOCYTE: 16404 CELLS/uL
  ABSOLUTE MONOCYTE: 67.67 CELLS/uL
  ABSOLUTE SEGMENTED NEUTROPHIL: 1828.33 CELLS/uL
  BASOPHIL: 0%
  EOSINOPHIL: 0%
  ERYTHROCYTE COUNT: 5.5 x10E6/uL
  HEMATOCRIT: 35.6%
  HEMOGLOBIN: 13.9 G/DL
  LEUKOCYTE COUNT: 18.3 x10E3/uL
  LYMPHOCYTE: 89.67%
  MEAN CORPUSCULAR HEMOGLOBIN: 25.27 pg
  MEAN CORPUSCULAR HEMOGLOBIN CONCENTRATION: 39.03 G/DL
  MEAN CORPUSCULAR VOLUME: 64.67 fL
  MONOCYTE: 0.33%
  NEUTROPHIL: 10%
  NUCLEATED RED BLOOD CELLS: 0 /100WBC
  PLATELET COUNT: 1067.33 x10E3/uL
  ALANINE AMINOTRANSFERASE: 57.33 u/L
  ALBUMIN: 4.07 G/DL
  ALKALINE PHOSPHATASE: 391.33 u/L
  ASPARTATE AMINOTRANSFERASE: 107.33 u/L
  BLOOD UREA NITROGEN: 15.67 mg/dL
  CARBON DIOXIDE: 28 mmol/L
  CHLORIDE: 97.33 MEQ/L
  CHOLESTEROL: 78 mg/dL
  CREATINE PHOSPHOKINASE: 548.67 u/L
  CREATININE: 0.13 mg/dL
  GLUCOSE: 175.33 mg/dL
  LACTATE DEHYDROGENASE: 236 u/L
  LIPASE: 10.33 u/L
  PHOSPHORUS: 12.27 mg/dL
  POTASSIUM: 7.46 MEQ/L
  SODIUM: 141.6 MEQ/L
  TOTAL BILIRUBIN: 0.3 mg/dL
  TOTAL PROTEIN: 5.77 G/DL
  URIC ACID: 1.63 mg/dL
[2]
  ABSOLUTE BASOPHIL: 0 CELLS/uL
  ABSOLUTE EOSINOPHIL: 0 CELLS/uL
  ABSOLUTE LYMPHOCYTE: 19433.33 CELLS/uL
  ABSOLUTE MONOCYTE: 145.67 CELLS/uL
  ABSOLUTE SEGMENTED NEUTROPHIL: 1621 CELLS/uL
  BASOPHIL: 0%
  EOSINOPHIL: 0%
  ERYTHROCYTE COUNT: 5.54 x10E6/uL
  HEMATOCRIT: 35.5%
  HEMOGLOBIN: 14 G/DL
  LEUKOCYTE COUNT: 21.2 x10E3/uL
  LYMPHOCYTE: 92%
  MEAN CORPUSCULAR HEMOGLOBIN: 25.27 pg
  MEAN CORPUSCULAR HEMOGLOBIN CONCENTRATION: 39.47 G/DL
  MEAN CORPUSCULAR VOLUME: 64.03 fL
  MONOCYTE: 0.67%
  NEUTROPHIL: 7.33%
  NUCLEATED RED BLOOD CELLS: 0.33 /100WBC
  PLATELET COUNT: 1240.33 x10E3/uL
  ALANINE AMINOTRANSFERASE: 61 u/L
  ALBUMIN: 4.03 G/DL
  ALKALINE PHOSPHATASE: 438.67 u/L
  ASPARTATE AMINOTRANSFERASE: 84.33 u/L
  BLOOD UREA NITROGEN: 18.67 mg/dL
  CARBON DIOXIDE: 27.33 mmol/L
  CHLORIDE: 101.33 MEQ/L
  CHOLESTEROL: 73.33 mg/dL
  CREATINE PHOSPHOKINASE: 325 u/L
  CREATININE: 0.14 mg/dL
  GLUCOSE: 163 mg/dL
  LACTATE DEHYDROGENASE: 262.67 u/L
  LIPASE: 8.67 u/L
  PHOSPHORUS: 11.8 mg/dL
  POTASSIUM: 7.21 MEQ/L
  SODIUM: 140.77 MEQ/L
  TOTAL BILIRUBIN: 0.13 mg/dL
  TOTAL PROTEIN: 6.03 G/DL
  URIC ACID: 1.63 mg/dL
[3]
  ABSOLUTE BASOPHIL: 0 CELLS/uL
  ABSOLUTE EOSINOPHIL: 0 CELLS/uL
  ABSOLUTE LYMPHOCYTE: 11605 CELLS/uL
  ABSOLUTE MONOCYTE: 107 CELLS/uL
  ABSOLUTE SEGMENTED NEUTROPHIL: 488 CELLS/uL
  BASOPHIL: 0%
  EOSINOPHIL: 0%
  ERYTHROCYTE COUNT: 5.51 x10E6/uL
  HEMATOCRIT: 36.1%
  HEMOGLOBIN: 14.37 G/DL
  LEUKOCYTE COUNT: 12.2 x10E3/uL
  LYMPHOCYTE: 95%
  MEAN CORPUSCULAR HEMOGLOBIN: 26.1 pg
  MEAN CORPUSCULAR HEMOGLOBIN CONCENTRATION: 39.8 G/DL
  MEAN CORPUSCULAR VOLUME: 65.6 fL
  MONOCYTE: 1%
  NEUTROPHIL: 4%
  NUCLEATED RED BLOOD CELLS: 0 /100WBC
  PLATELET COUNT: 1374.33 x10E3/uL
  ALANINE AMINOTRANSFERASE: 75.67 u/L
  ALBUMIN: 4.37 G/DL
  ALKALINE PHOSPHATASE: 486 u/L
  ASPARTATE AMINOTRANSFERASE: 91 u/L
  BLOOD UREA NITROGEN: 18 mg/dL
  CARBON DIOXIDE: 29.67 mmol/L
  CHLORIDE: 98.33 MEQ/L
  CHOLESTEROL: 67.33 mg/dL
  CREATINE PHOSPHOKINASE: 326 u/L
  CREATININE: 0.19 mg/dL
  GLUCOSE: 190 mg/dL
  LACTATE DEHYDROGENASE: 114.33 u/L
  LIPASE: 10 u/L
  PHOSPHORUS: 13.03 mg/dL
  POTASSIUM: 6.8 MEQ/L
  SODIUM: 143.43 MEQ/L
  TOTAL BILIRUBIN: 0.17 mg/dL
  TOTAL PROTEIN: 6.27 G/DL
  URIC ACID: 2.17 mg/dL
[4]
  ABSOLUTE BASOPHIL: 0 CELLS/uL
  ABSOLUTE EOSINOPHIL: 0 CELLS/uL
  ABSOLUTE LYMPHOCYTE: 14283 CELLS/uL
  ABSOLUTE MONOCYTE: 137.67 CELLS/uL
  ABSOLUTE SEGMENTED NEUTROPHIL: 1112.67 CELLS/uL
  BASOPHIL: 0%
  EOSINOPHIL: 0%
  ERYTHROCYTE COUNT: 5.95 x10E6/uL
  HEMATOCRIT: 37.37%
  HEMOGLOBIN: 14.87 G/DL
  LEUKOCYTE COUNT: 15.53 x10E3/uL
  LYMPHOCYTE: 91.33%
  MEAN CORPUSCULAR HEMOGLOBIN: 25.13 pg
  MEAN CORPUSCULAR HEMOGLOBIN CONCENTRATION: 39.87 G/DL
  MEAN CORPUSCULAR VOLUME: 63.03 fL
  MONOCYTE: 1%
  NEUTROPHIL: 7.67%
  NUCLEATED RED BLOOD CELLS: 0 /100WBC
  PLATELET COUNT: 1213.67 x10E3/uL
  ALANINE AMINOTRANSFERASE: 48 u/L
  ALBUMIN: 4.33 G/DL
  ALKALINE PHOSPHATASE: 380 u/L
  ASPARTATE AMINOTRANSFERASE: 78.67 u/L
  BLOOD UREA NITROGEN: 19 mg/dL
  CARBON DIOXIDE: 29 mmol/L
  CHLORIDE: 100.67 MEQ/L
  CHOLESTEROL: 74.33 mg/dL
  CREATINE PHOSPHOKINASE: 277.67 u/L
  CREATININE: 0.24 mg/dL
  GLUCOSE: 147 mg/dL
  LACTATE DEHYDROGENASE: 321.33 u/L
  LIPASE: 9.33 u/L
  PHOSPHORUS: 10.77 mg/dL
  POTASSIUM: 6.44 MEQ/L
  SODIUM: 143.33 MEQ/L
  TOTAL BILIRUBIN: 0.2 mg/dL
  TOTAL PROTEIN: 6.2 G/DL
  URIC ACID: 1.5 mg/dL
[5]
  ABSOLUTE BASOPHIL: 50 cells/µL
  ABSOLUTE EOSINOPHIL: 43.3 cells/µL
  ABSOLUTE LYMPHOCYTE: 9670 cells/µL
  ABSOLUTE MONOCYTE: 210 cells/µL
  BASOPHIL: 0.4%
  EOSINOPHIL: 0.37%
  ERYTHROCYTE COUNT: 6.82 x10E6/uL
  HEMATOCRIT: 46.77%
  HEMOGLOBIN: 14.53 G/DL
  LEUKOCYTE COUNT: 11.77 x10E3/uL
  LYMPHOCYTE: 82.1%
  MEAN CORPUSCULAR HEMOGLOBIN: 21.33 pg
  MEAN CORPUSCULAR HEMOGLOBIN CONCENTRATION: 31.13 G/DL
  MEAN CORPUSCULAR VOLUME: 68.57 fL
  MONOCYTE: 1.8%
  NEUTROPHIL: 14.83%
  PLATELET COUNT: 1303.33 x10E3/uL
  ALANINE AMINOTRANSFERASE: 46.67 u/L
  ALBUMIN: 4.17 G/DL
  ALKALINE PHOSPHATASE: 530 u/L
  ASPARTATE AMINOTRANSFERASE: 81.33 u/L
  BLOOD UREA NITROGEN: 17.67 mg/dL
  CARBON DIOXIDE: 41.67 mmol/L
  CHLORIDE: 102 MEQ/L
  CHOLESTEROL: 70.33 mg/dL
  CREATINE PHOSPHOKINASE: 372.67 u/L
  CREATININE: 0.5 mg/dL
  GLUCOSE: 184 mg/dL
  LIPASE: 13.33 u/L
  PHOSPHORUS: 10.2 mg/dL
